Data published in patent US20240197828A1, “Chimeric molecule to treat sepsis and other inflammatory conditions” (THE FEINSTEIN INSTITUTES FOR MEDICAL RESEARCH, priority 2022, published 2024).
Residues, ends and D or L forms follow the SMILES beside them.

Legend:
[1] = test system: WT mice; experiment: CLP-induced sepsis, 10-day survival; format: in vivo, mouse
Procedure: FIG. 6A-6M: MOP3 ameliorates inflammation, lung injury, and improves survival in sepsis. WT mice subjected to CLP-induced sepsis with MOP3 treatment (10 μg/kg) or vehicle (volume-equivalent). After 20 hours, blood and lung tissue collected for respective analyses. (A-C) Serum was analyzed for systemic eCIRP, IL-6, and TNFα levels by ELISA. (D-F) Serum was analyzed for ALT, AST, and LDH by calorimetric assays. (G-I) Lung tissue was frozen and mRNA expression of IL-6, TNFα, and IL-1β was measured by PCR and MPO by calorimetric assay. (J) Lung tissue was frozen and analyzed for MPO levels by calorimetric assay. (K) Lungs were sectioned, imaged for histologic injury by H&E staining, and performed lung injury scoring. (L) Sectioned lungs were stained for TUNEL positive cells and cell counts were quantified. […] Data are expressed as mean±SEM and compared by one-way ANOVA and SNK test. *p<0.05 vs. sham, #p<0.05 vs. CLP vehicle. (M) WT mice subjected to CLP-induced sepsis with MOP3 treatment (10 μg/kg) or vehicle (volume equivalent) and monitored for 10 days for humane endpoints, and differences in survival were determined (N=17 per group). *p<0.05 vs. CLP vehicle. […]
Data represented in the figures are expressed as mean±SEM. […] Survival rates were analyzed by the Kaplan-Meier estimator and compared using a log-rank test. Significant differences between groups were determined by Tukey's method. […]

[2] = test system: WT mice; experiment: CLP-induced polymicrobial sepsis, 20 hours; format: in vivo, mouse; settings: vs vehicle
Procedure: FIG. 6A-6M: MOP3 ameliorates inflammation, lung injury, and improves survival in sepsis. WT mice subjected to CLP-induced sepsis with MOP3 treatment (10 μg/kg) or vehicle (volume-equivalent). After 20 hours, blood and lung tissue collected for respective analyses. (A-C) Serum was analyzed for systemic eCIRP, IL-6, and TNFα levels by ELISA. (D-F) Serum was analyzed for ALT, AST, and LDH by calorimetric assays. (G-I) Lung tissue was frozen and mRNA expression of IL-6, TNFα, and IL-1β was measured by PCR and MPO by calorimetric assay. (J) Lung tissue was frozen and analyzed for MPO levels by calorimetric assay. (K) Lungs were sectioned, imaged for histologic injury by H&E staining, and performed lung injury scoring. (L) Sectioned lungs were stained for TUNEL positive cells and cell counts were quantified. All experiments were performed 3 times, and all data were used for analysis (N=6-18). Data are expressed as mean±SEM and compared by one-way ANOVA and SNK test. *p<0.05 vs. sham, #p<0.05 vs. CLP vehicle. (M) WT mice subjected to CLP-induced sepsis with MOP3 treatment (10 μg/kg) or vehicle (volume equivalent) and monitored for 10 days for humane endpoints, and differences in survival were determined (N=17 per group). *p<0.05 vs. CLP vehicle.
Adult (8-12 weeks) male, C57BL/6 wild-type (WT) mice (20-30 g) were purchased from Charles River Laboratories. MFG-E8 knockout mice (MFG-E8^−/−) were originally obtained from Dr. Shigekazu Nagata, Osaka University of Japan, and bred following our Institutional Animal Care and Use Committee (IACUC) policies. Age-matched, healthy mice were used in all experiments. Animals were randomly assigned to sham, vehicle, or treatment groups. Concerted effort was made to ensure that a limited number of animals were used in each experiment. All experiments were previously approved by IACUC of the Feinstein Institutes for Medical Research (Manhasset, NY) and were performed in accordance with the guidance for the use of experimental animals by the National Institutes of Health (Bethesda, MD). For the design of in vivo models, sample size calculation was driven by variability, effect size, significance level and power as determined through performance of early feasibility and optimization pilot studies.
Sepsis was induced in mice by cecal ligation and puncture (CLP) as previously described (4). Briefly, mice were anesthetized with inhaled isoflurane to achieve adequate anesthesia. After placement in the supine position, the abdomen was shaved and disinfected. A 2-cm midline laparotomy was created. The cecum was located and eviscerated from the abdomen and then ligated with a 4-0 silk suture approximately 1 cm proximal from the terminal cecal extremity. For short-term experiments using this polymicrobial sepsis model, the cecum was punctured twice (through and through) with a 22G needle. Careful extraction of a consistent, small amount of cecal content was extruded, and the cecum along with cecal content was returned to the peritoneal cavity. […] All comparative surgeries were performed on the same day to reduce severity-variability. All short-term experiments were repeated at least three-times to ensure reproducibility of relative markers of inflammation and injury.
For respective experiments, either WT or MFG-E8 knockout mice were subjected to CLP. For treatment experiments, mice were randomly assigned to either vehicle or treatment groups. MOP3 ([…]) was given via retroorbital (r.o.) injection at time of surgery, immediately following abdominal closure. Vehicle groups received an equivalent volume of normal saline via r.o. injection. For resuscitation, mice additionally received subcutaneous injection of 500 μL of normal saline immediately after abdominal closure.
The mouse macrophage cell culture supernatants were analyzed for cytokine levels using ELISA kits (BD Biosciences, CA). […]

SMILES: CC(C)C[C@H](NC(=O)[C@H](CC(N)=O)NC(=O)[C@H](Cc1c[nH]c2ccccc12)NC(=O)[C@@H](NC(=O)[C@H](CCCCN)NC(=O)[C@H](Cc1ccc(O)cc1)NC(=O)[C@H](CO)NC(=O)[C@H](CO)NC(=O)[C@H](CO)NC(=O)[C@H](CC(=O)O)NC(=O)CNC(=O)[C@@H](N)CCCNC(=N)N)[C@@H](C)O)C(=O)N[C@@H](CCCNC(=N)N)C(=O)N[C@@H](C)C(=O)N[C@@H](Cc1ccccc1)C(=O)NCC(=O)N[C@@H](Cc1c[nH]c2ccccc12)C(=O)N[C@@H](Cc1ccc(O)cc1)C(=O)O [MOP3, RGDSSSYKTWNLRAFGWY] (H-RGDSSSYKTWNLRAFGWY-OH; N-terminus and C-terminus assumed)
- mortality ([1]; CLP, one-time MOP3 dose, monitored 10 days, N=17 per group): 17.6%
- observed phenotypic effects ([1]; septic mice, no off-target, pharmacokinetic or toxicity studies performed): lack of observed phenotypic effects
- lung tissue mRNA levels of IL-1β ([2]; PCR): reduced
- lung tissue mRNA levels of IL-6 ([2]; PCR): reduced
- lung tissue mRNA levels of TNFα ([2]; PCR): reduced
- serum levels of eCIRP ([2]; one-time intravenous MOP3 at surgical closure): significantly reduced
- systemic IL-6 ([2]; serum): attenuated systemic inflammation
- systemic TNFα ([2]; serum): attenuated systemic inflammation
- apoptotic cells in lungs (TUNEL) [2]: significantly less apoptotic cells
- lung MPO levels [2]: decreased
- lung histologic architecture (H&E, lung injury) [2]: significantly preserved histologic architecture
- serum ALT levels [2]: reduced
- serum AST levels [2]: reduced
- serum LDH levels [2]: reduced
